One assay has as its system phosphorylation of Serine-9 residue in Glycogen Synthase Kinase-3beta as surrogate marker of cellular PKB (Akt) activity. Kind of assay: In vitro MDA-MB-468 human breast adenocarcinoma GSK-3 phosphorylation assay. The format is cell-based. The note with it: MDA-MB-468, 2 h, read-out: Cell pGSK3b IC50. An excerpt:
This assay determines the ability of test compounds to inhibit phosphorylation of Serine-9 residue in Glycogen Synthase Kinase-3beta (GSK-313) as a surrogate marker of cellular PKB (Akt) activity, as assessed using Acumen Explorer Fluorescent Plate-Reader technology. A MDA-MB-468 human breast adenocarcinoma cell line (LGC Promochem, Teddington, Middlesex, UK, Catalogue No. HTB-132) was routinely maintained in Dulbecco's modified Eagle's growth medium (DMEM; Invitrogen Limited, Paisley, UK Catalogue No. 11966-025) containing 10% heat-inactivated foetal calf serum (FCS; Sigma, Poole, Dorset, UK, Catalogue No. F0392) and 1% L-glutamine (Gibco, Catalogue No. 25030-024) at 37° C. with 5% CO2 up to a confluency of 70-90%.
For the phosphorylation assay, the cells were detached from the culture flask using Trypsin-EDTA (Invitrogen Limited, Catalogue No. 25300-062) and seeded into the wells of a black transparent-bottom Corning Costar Polystyrene 96 well plate (Fisher Scientific UK, Loughborough, Leicestershire, UK; Catalogue No. 3904 and DPS-130-020K) at a density of 5000 cells per well in 100 μl of complete growth media. The cells were incubated overnight at 37° C. with 5% CO2 to allow them to adhere.
On day 2, the cells were treated with test compounds and incubated for 2 hours at 37° C. with 5% CO2. Test compounds were prepared as 10mM stock solutions in DMSO and dosed directly to required concentration into test wells using non-contact (acoustic dispensing of multiple 2.5 nl droplets directly into assay wells) ECHO dosing technology (Labcyte Inc Sunnyvale, Calif., USA). Each plate contained control wells without test compound.
20 μl of fixing buffer (Phosphate Buffered Saline (PBS) containing 10% formaldehyde; Sigma; Catalogue No. F1635) was then added to each well to give a final well concentration 1.6%. Plates were then incubated for 30 minutes at room temperature prior to the fixative being removed. Each well was washed once with 250 μl of PBS and then 50 μl PBS added to each well. PBS was then aspirated and cells permeabilised and blocked by incubating each well with 50 μl of permeabilisation/blocking buffer (PBS containing 0.5% Tween 20 (Sigma; Catalogue No. P5927) and 5% Marvel Milk Powder (Andrews Pharmacy Ltd, Macclesfield, Cheshire, UK; Catalogue No. APC100199)) for 1 hour at room temperature prior to staining.
Following removal of Perm/Block buffer, 50 μl of primary anti-phospho-GSK-3β antibody (Cell Signalling Technology (New England Biolabs (Uk) Ltd.), Hitchin, Hertfordshire, UK; Catalogue No.9336 diluted 1:400 in Blocking buffer (PBS containing 5% Marvel and 0.05% Tween/Polysorbate 20) was added to each well and incubated overnight at 4° C.
Each well was washed three times in 250 μl of wash buffer (PBS containing 0.05% polysorbate 20), and cells incubated for 1 hour at room temperature with 50 μl of secondary fluorescently-labelled anti-rabbit Alexa Fluor 488 antibody (Molecular Probes, Invitrogen Limited, Catalogue No. A11008) diluted 1:750 in blocking buffer. Plates were washed three times in 250 μl of wash buffer and stored containing 50 μl of PBS at 4° C. until required.
Plates were analysed using an Acumen Explorer Plate-reader to quantify level of fluorescent signal that represents quantity of phosphorylated-GSK-313.
IC50 calculation—IC50 is the concentration of compound required to give 50% effect over the range of activity affected by the compound, between maximum (no compound) and minimum (excess level of compound) response control data. IC50 values were determined by fitting background corrected, dose response assay data to a 4 parameter logistic curve fit equation model with the minimum response set to zero. This was done using an in-house developed algorithm within the Origin graphing software package (OriginLab Corporation, Northampton, Mass., USA). […]
As for `COc1ccc(Oc2ccc3[nH]c(C4(N)CCN(c5ncnc6[nH]cnc56)CC4)nc3c2)cc1` [Example 63, 4-(5-(4-methoxyphenoxy)-1H-benzo[d]imidazol-2-yl)-1-(9H-purin-6-yl)piperidin-4-amine], the IC50 (usually the concentration at which inhibition is half-maximal) is above 960 nM. Same read-out and setting: the value for `NC1(c2nc3cc(SC(F)(F)F)ccc3[nH]2)CCN(c2ncnc3[nH]ccc23)CC1` [Example 65, 1-(7H-Pyrrolo[2,3-d]pyrimidin-4-yl)-4-(5-(trifluoromethylthio)-1H-benzo[d]imidazol-2-yl)piperidin-4-amine] was 420 nM.

Staying with this assay, now noted: MDA-MB-468 cells, 2 hours compound incubation, mean IC50, read-out: Cell pGSK3b IC50.
`NC1(c2nc3c(O)cccc3[nH]2)CCN(c2ncnc3[nH]ccc23)CC1` [Example 11, 2-[4-Amino-1-(7H-pyrrolo[2,3-d]pyrimidin-4-yl)-piperidin-4-yl]-1H-benzoimidazol-4-ol]: the half-inhibitory concentration (IC50) worked out at 160 nM. With `NC1(c2nc3ccc(Cl)cc3[nH]2)CCN(c2ncnc3[nH]ccc23)CC1` [Example 13, 4-(6-chloro-1H-benzoimidazol-2-yl)-1-(7H-pyrrolo[2,3-d]pyrimidin-4-yl)-piperidin-4-ylamine], the IC50 came out at 660 nM.

For the compound `NC1(c2nc3ccc(Cl)cc3[nH]2)CCN(c2ncnc3[nH]cnc23)CC1` [Example 21, 4-(6-chloro-1H-benzoimidazol-2-yl)-1-(9H-purin-6-yl)-piperidin-4-ylamine], the IC50 worked out at 250 nM.

Consider `NC1(c2nc3ccc(Cl)cc3[nH]2)CCN(c2ncnc3[nH]ncc23)CC1` [Example 22, 4-(6-chloro-1H-benzoimidazol-2-yl)-1-(1H-pyrazolo[3,4-d]pyrimidin-4-yl)-piperidin-4-ylamine], for which the half-inhibitory concentration (IC50) is 770 nM. Same read-out and setting: the value for `NCC1(c2nc3ccccc3[nH]2)CCN(c2ncnc3[nH]ccc23)CC1` [Example 34D, C-[4-(1H-Benzoimidazol-2-yl)-1-(7H-pyrrolo[2,3-d]pyrimidin-4-yl)-piperidin-4-yl]-methylamine] was 86 nM; that for `NC1(c2nc3c(-c4ccccc4)cccc3[nH]2)CCN(c2ncnc3[nH]ccc23)CC1` [Example 42, 4-(4-Phenyl-1H-benzoimidazol-2-yl)-1-(7H-pyrrolo[2,3-d]pyrimidin-4-yl)-piperidin-ylamine] was below 31 nM; that for `NCC1(c2nc3ccccc3[nH]2)CCN(c2ncnc3[nH]cnc23)CC1` [Example 44, (4-(1H-benzo[d]imidazol-2-yl)-1-(9H-purin-6-yl)piperidin-4-yl)methanamine] was 120 nM. For the compound `NCC1(c2nc3ccccc3[nH]2)CCN(c2ncnc3[nH]cc(Cl)c23)CC1` [Example 45, (4-(1H-benzo[d]imidazol-2-yl)-1-(5-chloro-7H-pyrrolo[2,3-d]pyrimidin-4-yl)piperidin-4-yl)methanamine], the IC50 came to 87 nM. For `NCC1(c2nc3ccccc3[nH]2)CCN(c2ncnc3[nH]nc(Br)c23)CC1` [Example 46, (4-(1H-benzo[d]imidazol-2-yl)-1-(3-bromo-1H-pyrazolo[3,4-d]pyrimidin-4-yl)piperidin-4-yl)methanamine], the 50% inhibitory concentration (IC50) amounted to 97 nM.

Regarding `Cc1c[nH]c2ncnc(N3CCC(CN)(c4nc5ccccc5[nH]4)CC3)c12` [Example 47, (4-(1H-benzo[d]imidazol-2-yl)-1-(5-methyl-7H-pyrrolo[2,3-d]pyrimidin-4-yl)piperidin-4-yl)methanamine], the IC50 came to 170 nM. The same measure, in the same setting: under `NCC1(c2nc3ccccc3[nH]2)CCN(c2ncnc3[nH]cc(Br)c23)CC1` [Example 48, (4-(1H-benzo[d]imidazol-2-yl)-1-(5-bromo-7H-pyrrolo[2,3-d]pyrimidin-4-yl)-piperidin-4-yl)methanamine] stands 210 nM. The same measure, in the same setting: under `NC1(c2nc3ccc(C(F)(F)F)cc3[nH]2)CCN(c2ncnc3[nH]ccc23)CC1` [Example 50, 1-(7H-Pyrrolo[2,3-d]pyrimidin-4-yl)-4-[6-(trifluoromethyl)-1H-benzimidazol-2-yl]piperidin-4-amine] stands 480 nM; under `Cc1ccc2nc(C3(N)CCN(c4ncnc5[nH]ccc45)CC3)[nH]c2c1C` [Example 51, 4-(6,7-dimethyl-1H-benzimidazol-2-yl)-1-(7H-pyrrolo[2,3-d]pyrimidin-4-yl)piperidin-4-amine], 800 nM; under `NC1(c2nc3cc(F)c(Cl)cc3[nH]2)CCN(c2ncnc3[nH]ccc23)CC1` [Example 52, 4-(6-chloro-5-fluoro-1H-benzimidazol-2-yl)-1-(7H-pyrrolo[2,3-d]pyrimidin-4-yl)piperidin-4-amine], 1300 nM. Consider `NC1(c2nc3cc(Cl)c(Cl)cc3[nH]2)CCN(c2ncnc3[nH]ccc23)CC1` [Example 53, 4-(5,6-Dichloro-1H-benzoimidazol-2-yl)-1-(7H-pyrrolo[2,3-d]pyrimidin-4-yl)-piperidin-4-ylamine], for which the IC50 came to 1800 nM. As to `Cn1c(C2(N)CCN(c3ncnc4[nH]ccc34)CC2)nc2ccccc21` [Example 54, 4-(1-methylbenzimidazol-2-yl)-1-(7H-pyrrolo[2,3-d]pyrimidin-4-yl)piperidin-4-amine], the IC50 was above 2600 nM. Still for that read-out and setting: the value for `NC1(c2nc3cccnc3[nH]2)CCN(c2ncnc3[nH]ccc23)CC1` [Example 55, 4-(3H-imidazo[5,4-b]pyridin-2-yl)-1-(7H-pyrrolo[2,3-d]pyrimidin-4-yl)piperidin-4-amine] was 2900 nM. Still for that read-out and setting: the value for `NC1(c2nc3cc(-n4ccnc4)ccc3[nH]2)CCN(c2ncnc3[nH]ccc23)CC1` [Example 56, 4-(5-imidazol-1-yl-1H-benzimidazol-2-yl)-1-(7H-pyrrolo[2,3-d]pyrimidin-4-yl)piperidin-4-amine] was 5500 nM. As for `Cc1cc2[nH]c(C3(N)CCN(c4ncnc5[nH]ccc45)CC3)nc2cc1Cl` [Example 57, 4-(5-chloro-6-methyl-1H-benzo[d]imidazol-2-yl)-1-(7H-pyrrolo[2,3-d]pyrimidin-4-yl)piperidin-4-amine], the IC50 is above 2100 nM.

On to `Cc1cc(Cl)cc2nc(C3(N)CCN(c4ncnc5[nH]ccc45)CC3)[nH]c12` [Example 58, 4-(5-Chloro-7-methyl-1H-benzo[d]imidazol-2-yl)-1-(7H-pyrrolo[2,3-d]pyrimidin-4-yl)piperidin-4-amine], for which the IC50 worked out at 1400 nM. Same read-out and setting: under `CCN(CC)S(=O)(=O)c1ccc2[nH]c(C3(N)CCN(c4ncnc5[nH]ccc45)CC3)nc2c1` [Example 59, 2-(4-amino-1-(7H-pyrrolo[2,3-d]pyrimidin-4-yl)piperidin-4-yl)-N,N-diethyl-1H-benzo[d]imidazole-5-sulfonamide] stands 1900 nM; under `CN1CCN(c2ccc3[nH]c(C4(N)CCN(c5ncnc6[nH]ccc56)CC4)nc3c2)CC1` [Example 60, 4-(5-(4-methylpiperazin-1-yl)-1H-benzo[d]imidazol-2-yl)-1-(7H-pyrrlo[2,3-d]pyrimidin-4-yl)piperidin-4-amine], 8600 nM. Still for that read-out and setting: the value for `NC1(c2nc3cc(OC(F)(F)F)ccc3[nH]2)CCN(c2ncnc3[nH]ccc23)CC1` [Example 61, 1-(7H-Pyrrolo[2,3-d]pyrimidin-4-yl)-4-(5-(trifluoromethoxy)-1H-benzo[d]imidazol-2-yl)piperidin-4-amine] was 620 nM; that for `CC(C)c1ccc2[nH]c(C3(N)CCN(c4ncnc5[nH]ccc45)CC3)nc2c1` [Example 62, 4(5-isopropyl-1H-benzo[d]imidazol-2-yl)-1-(7H-pyrrolo[2,3-d]pyrimidin-4-yl)piperidin-4-amine] was 580 nM. The same measure, in the same setting: the value for `COc1ccc(Oc2ccc3[nH]c(C4(N)CCN(c5ncnc6[nH]ccc56)CC4)nc3c2)cc1` [Example 64, 4-(5-(4-Methoxyphenoxy)-1H-benzo[d]imidazol-2-yl)-1-(7H-pyrrolo[2,3-d]pyrimidin-4-yl)piperidin-4-amine] was 380 nM.

Values taken from patent publication US20100093748A1, “SUBSTITUTED PIPERIDINES HAVING PROTEIN KINASE INHIBITING ACTIVITY” (ASTEX THERAPEUTICS LIMITED, priority 2006, published 2010).
